Numbers after ± are expanded uncertainties.
Assay: mn = molality of the nth substance listed, in mol/kg
Conditions: 101 kPa, Liquid; for mass density: Pycnometric method; for viscosity: Capillary tube (Ostwald / Ubbelohde) method

C[C@@H](O)[C@H](N)C(=O)O [L-threonine] + O
mass density (293.15 K, m1 = 0.025): 999.31 ± 0.29 kg/m3 | mass density (293.15 K, m1 = 0.05): 1000.36 ± 0.29 kg/m3 | mass density (293.15 K, m1 = 0.075): 1001.39 ± 0.29 kg/m3 | mass density (293.15 K, m1 = 0.0999): 1002.41 ± 0.29 kg/m3 | mass density (293.15 K, m1 = 0.1249): 1003.41 ± 0.29 kg/m3 | mass density (293.15 K, m1 = 0.15): 1004.39 ± 0.29 kg/m3 | mass density (293.15 K, m1 = 0.175): 1005.36 ± 0.29 kg/m3 | mass density (293.15 K, m1 = 0.2): 1006.31 ± 0.29 kg/m3 | viscosity (298.15 K, m1 = 0.025): 0.8981 ± 0.0082 mPa·s | viscosity (298.15 K, m1 = 0.05): 0.9057 ± 0.0082 mPa·s | viscosity (298.15 K, m1 = 0.075): 0.9134 ± 0.0083 mPa·s | viscosity (298.15 K, m1 = 0.0999): 0.9211 ± 0.0083 mPa·s | viscosity (298.15 K, m1 = 0.1249): 0.9286 ± 0.0084 mPa·s | viscosity (298.15 K, m1 = 0.15): 0.936 ± 0.0084 mPa·s | viscosity (298.15 K, m1 = 0.175): 0.9434 ± 0.0084 mPa·s | viscosity (298.15 K, m1 = 0.2): 0.9511 ± 0.0085 mPa·s | mass density (298.15 K, m1 = 0.025): 998.14 ± 0.31 kg/m3 | mass density (298.15 K, m1 = 0.05): 999.18 ± 0.31 kg/m3 | mass density (298.15 K, m1 = 0.075): 1000.22 ± 0.31 kg/m3 | mass density (298.15 K, m1 = 0.0999): 1001.23 ± 0.31 kg/m3 | mass density (298.15 K, m1 = 0.1249): 1002.23 ± 0.31 kg/m3 | mass density (298.15 K, m1 = 0.15): 1003.21 ± 0.31 kg/m3 | mass density (298.15 K, m1 = 0.175): 1004.18 ± 0.31 kg/m3 | mass density (298.15 K, m1 = 0.2): 1005.12 ± 0.31 kg/m3 | viscosity (303.15 K, m1 = 0.025): 0.8051 ± 0.0075 mPa·s | viscosity (303.15 K, m1 = 0.05): 0.8128 ± 0.0075 mPa·s | viscosity (303.15 K, m1 = 0.075): 0.8205 ± 0.0076 mPa·s | viscosity (303.15 K, m1 = 0.0999): 0.828 ± 0.0076 mPa·s | viscosity (303.15 K, m1 = 0.1249): 0.8358 ± 0.0077 mPa·s | viscosity (303.15 K, m1 = 0.15): 0.8434 ± 0.0077 mPa·s | viscosity (303.15 K, m1 = 0.175): 0.851 ± 0.0077 mPa·s | viscosity (303.15 K, m1 = 0.2): 0.8584 ± 0.0078 mPa·s | mass density (303.15 K, m1 = 0.025): 996.75 ± 0.33 kg/m3 | mass density (303.15 K, m1 = 0.05): 997.8 ± 0.33 kg/m3 | mass density (303.15 K, m1 = 0.075): 998.83 ± 0.33 kg/m3 | mass density (303.15 K, m1 = 0.0999): 999.84 ± 0.33 kg/m3 | mass density (303.15 K, m1 = 0.1249): 1000.83 ± 0.33 kg/m3 | mass density (303.15 K, m1 = 0.15): 1001.83 ± 0.33 kg/m3 | mass density (303.15 K, m1 = 0.175): 1002.79 ± 0.33 kg/m3 | mass density (303.15 K, m1 = 0.2): 1003.74 ± 0.33 kg/m3 | viscosity (308.15 K, m1 = 0.025): 0.7266 ± 0.0067 mPa·s | viscosity (308.15 K, m1 = 0.05): 0.7344 ± 0.0068 mPa·s | viscosity (308.15 K, m1 = 0.075): 0.7421 ± 0.0068 mPa·s | viscosity (308.15 K, m1 = 0.0999): 0.7496 ± 0.0069 mPa·s | viscosity (308.15 K, m1 = 0.1249): 0.7571 ± 0.0069 mPa·s | viscosity (308.15 K, m1 = 0.15): 0.7645 ± 0.007 mPa·s | viscosity (308.15 K, m1 = 0.175): 0.7719 ± 0.007 mPa·s | viscosity (308.15 K, m1 = 0.2): 0.7792 ± 0.0071 mPa·s | mass density (308.15 K, m1 = 0.025): 995.14 ± 0.36 kg/m3 | mass density (308.15 K, m1 = 0.05): 996.19 ± 0.36 kg/m3 | mass density (308.15 K, m1 = 0.075): 997.23 ± 0.36 kg/m3 | mass density (308.15 K, m1 = 0.0999): 998.24 ± 0.36 kg/m3 | mass density (308.15 K, m1 = 0.1249): 999.24 ± 0.36 kg/m3 | mass density (308.15 K, m1 = 0.15): 1000.23 ± 0.36 kg/m3 | mass density (308.15 K, m1 = 0.175): 1001.2 ± 0.36 kg/m3 | mass density (308.15 K, m1 = 0.2): 1002.15 ± 0.36 kg/m3 | viscosity (313.15 K, m1 = 0.025): 0.66 ± 0.0061 mPa·s | viscosity (313.15 K, m1 = 0.05): 0.6678 ± 0.0062 mPa·s | viscosity (313.15 K, m1 = 0.075): 0.6754 ± 0.0062 mPa·s | viscosity (313.15 K, m1 = 0.0999): 0.6828 ± 0.0063 mPa·s | viscosity (313.15 K, m1 = 0.1249): 0.6901 ± 0.0063 mPa·s | viscosity (313.15 K, m1 = 0.15): 0.6974 ± 0.0064 mPa·s | viscosity (313.15 K, m1 = 0.175): 0.7047 ± 0.0064 mPa·s | viscosity (313.15 K, m1 = 0.2): 0.7119 ± 0.0065 mPa·s | mass density (313.15 K, m1 = 0.025): 993.32 ± 0.39 kg/m3 | mass density (313.15 K, m1 = 0.05): 994.38 ± 0.39 kg/m3 | mass density (313.15 K, m1 = 0.075): 995.42 ± 0.39 kg/m3 | mass density (313.15 K, m1 = 0.0999): 996.44 ± 0.39 kg/m3 | mass density (313.15 K, m1 = 0.1249): 997.44 ± 0.39 kg/m3 | mass density (313.15 K, m1 = 0.15): 998.43 ± 0.39 kg/m3 | mass density (313.15 K, m1 = 0.175): 999.4 ± 0.39 kg/m3 | mass density (313.15 K, m1 = 0.2): 1000.35 ± 0.39 kg/m3 | viscosity (318.15 K, m1 = 0.025): 0.6044 ± 0.0057 mPa·s | viscosity (318.15 K, m1 = 0.05): 0.6121 ± 0.0057 mPa·s | viscosity (318.15 K, m1 = 0.075): 0.6196 ± 0.0058 mPa·s | viscosity (318.15 K, m1 = 0.0999): 0.6269 ± 0.0058 mPa·s | viscosity (318.15 K, m1 = 0.1249): 0.6341 ± 0.0059 mPa·s | viscosity (318.15 K, m1 = 0.15): 0.6413 ± 0.0059 mPa·s | viscosity (318.15 K, m1 = 0.175): 0.6485 ± 0.006 mPa·s | viscosity (318.15 K, m1 = 0.2): 0.6556 ± 0.006 mPa·s | mass density (318.15 K, m1 = 0.025): 991.32 ± 0.41 kg/m3 | mass density (318.15 K, m1 = 0.05): 992.38 ± 0.41 kg/m3 | mass density (318.15 K, m1 = 0.075): 993.42 ± 0.41 kg/m3 | mass density (318.15 K, m1 = 0.0999): 994.45 ± 0.41 kg/m3 | mass density (318.15 K, m1 = 0.1249): 995.46 ± 0.41 kg/m3 | mass density (318.15 K, m1 = 0.15): 996.45 ± 0.4 kg/m3 | mass density (318.15 K, m1 = 0.175): 997.43 ± 0.4 kg/m3 | mass density (318.15 K, m1 = 0.2): 998.39 ± 0.4 kg/m3

Reference: the NIST ThermoML archive (doi:10.1016/j.jct.2013.01.008)
